Laboratory results as given in ChEMBL document CHEMBL1127360, “Antipodal alpha-N-(methyl through decyl)-N-normetazocines (5,9 alpha-dimethyl-2'-hydroxy-6,7-benzomorphans): in vitro and in vivo properties” (J Med Chem, 1994).
The source made the active and inactive calls. The rule behind the calls is not given here.

Key:
[1] = molecular target: T1, Glutamate NMDA receptor (Rattus norvegicus) (UniProt P35439+Q00959+Q00960+Q00961+Q62645+Q8VHN2+Q9R1M7); test: Ratio of potencies of (+) and (-) enantiomers against PCP in rats
Mus musculus [2] = test: In vivo for its narcotic antagonistic activity of the antinociceptive effect in mouse; format: functional, organism-based
[3] = molecular target: Mu-type opioid receptor (Homo sapiens) (UniProt P35372); test: Ratio of potencies against Mu receptor to that of kappa receptor of monkey; settings: Cercopithecidae; target entry is the homologue from another species
Mus musculus [4] = test: In vivo antinociceptive activity was tested through injecting 2 mg/kg ip phenylquinone, activity calculated by total number of abdominal-stretches; format: functional, Abdomen; settings: route intraperitoneal
Cavia porcellus [5] = organism: Cavia porcellus; test: Ratio of potencies against sigma receptor to that of Mu receptor of rat
[6] = molecular target: Kappa-type opioid receptor (Homo sapiens) (UniProt P41145); test: Ratio of potencies of (+) and (-) enantiomers against kappa receptors in monkeys; settings: Cercopithecidae; target entry is the homologue from another species
[7] = molecular target: T1, Glutamate NMDA receptor (Rattus norvegicus); test: Ratio of potencies against PCP receptor to that of Mu receptor of rat; format: protein-complex assay
Mu-type opioid receptor = Mu-type opioid receptor (Rattus norvegicus, UniProt P33535); test: Inhibition against mu receptor using [3H]DAMGO in homogenate of rat brain cerebellum; format: tissue-based
Cavia porcellus [8] = organism: Cavia porcellus; test: Ratio of potencies against PCP receptor to that of sigma receptor
[9] = molecular target: Mu-type opioid receptor (Homo sapiens) (UniProt P35372); test: Ratio of potencies of (+) and (-) enantiomers against Mu receptors in monkeys; settings: Cercopithecidae; target entry is the homologue from another species
Mus musculus [10] = test: (§1) In vivo antinociceptive activity was tested through tail flick (TF) with this compound in mouse; format: functional; design: unit not given beside the values
[11] = molecular target: Mu-type opioid receptor (Rattus norvegicus) (UniProt P33535); test: Ratio of potencies of (+) and (-) enantiomers against Mu receptors in Rats
Glutamate NMDA receptor = test: Inhibition using [3H]TCP in homogenate of rat brain; format: tissue-based
Mus musculus [12] = test: In vivo antinociceptive activity through hot plate (HP) by placing mouse on hot plate, and calculating number of times it jumps or licks its paw in 5 seconds; format: functional
Cercopithecidae = test: Ratio of potencies against Mu receptor of monkey to that of rat
Mus musculus [13] = test: In vivo antinociceptive activity through injecting 2 mg/kg ip phenylquinone, activity calculated by total number of abdominal-stretches per group counted over a 1 min period; Inactive; format: functional, organism-based; design: dose 2 mg/kg
Mus musculus [14] = test: as §1; format: functional, organism-based
Mus musculus [15] = test: In vivo antinociceptive activity was tested through hot plate (HP) and counting jumps or paw licks; format: functional, organism-based
Mus musculus [16] = test: In vivo antinociceptive activity at 20 mg/kg was tested through injecting 2 mg/kg ip phenylquinone, activity calculated by total number of abdominal-stretches per group counted over a 1 min period; format: functional
Mus musculus [17] = test: In vivo antinociceptive activity at 30 mg/kg was tested through injecting 2 mg/kg ip phenylquinone, activity calculated by total number of abdominal-stretches per group counted over a 1 min period; format: functional
Mus musculus [18] = test: In vivo antinociceptive activity at 30 mg/kg was tested through hot plate (HP) by placing mouse on hot plate, and calculating number of times it jumps or licks its paw in 5 seconds; format: functional
Mus musculus [19] = test: In vivo antinociceptive activity was tested through tail flick (TF) with this compound in mouse at 30 mg/kg concentration; format: functional
Mus musculus [20] = test: Compound was tested in vivo for its narcotic antagonistic activity of the antinociceptive effect in mouse at 30 mg/kg; format: functional
[21] = molecular target: Sigma non-opioid intracellular receptor 1 (Homo sapiens, UniProt Q99720); test: Binding affinity against sigma receptor was determined
Mus musculus [22] = test: Compound was tested in vivo for its narcotic antagonistic activity of the antinociceptive effect in mouse; format: functional
Mus musculus [23] = test: In vivo antinociceptive activity at 10 mg/kg was tested through hot plate (HP) by placing mouse on hot plate, and calculating number of times it jumps or licks its paw in 5 seconds; format: functional
Mus musculus [24] = test: In vivo antinociceptive activity at 1 mg/kg was tested through hot plate (HP) by placing mouse on hot plate, and calculating number of times it jumps or licks its paw in 5 seconds; format: functional

Chain of Mu-type opioid receptor (Homo sapiens) (P35372 whole entry): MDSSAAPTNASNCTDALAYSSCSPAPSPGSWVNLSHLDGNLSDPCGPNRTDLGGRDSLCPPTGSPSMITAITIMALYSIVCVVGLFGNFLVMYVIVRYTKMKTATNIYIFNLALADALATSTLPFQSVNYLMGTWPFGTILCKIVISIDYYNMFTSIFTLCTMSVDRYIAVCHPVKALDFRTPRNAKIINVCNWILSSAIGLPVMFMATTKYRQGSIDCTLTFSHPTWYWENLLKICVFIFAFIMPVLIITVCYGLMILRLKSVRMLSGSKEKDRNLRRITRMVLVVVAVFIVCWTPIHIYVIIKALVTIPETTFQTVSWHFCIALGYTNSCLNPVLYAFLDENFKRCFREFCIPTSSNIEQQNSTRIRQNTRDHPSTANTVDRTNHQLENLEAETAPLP
Chain of Mu-type opioid receptor (P33535 whole entry): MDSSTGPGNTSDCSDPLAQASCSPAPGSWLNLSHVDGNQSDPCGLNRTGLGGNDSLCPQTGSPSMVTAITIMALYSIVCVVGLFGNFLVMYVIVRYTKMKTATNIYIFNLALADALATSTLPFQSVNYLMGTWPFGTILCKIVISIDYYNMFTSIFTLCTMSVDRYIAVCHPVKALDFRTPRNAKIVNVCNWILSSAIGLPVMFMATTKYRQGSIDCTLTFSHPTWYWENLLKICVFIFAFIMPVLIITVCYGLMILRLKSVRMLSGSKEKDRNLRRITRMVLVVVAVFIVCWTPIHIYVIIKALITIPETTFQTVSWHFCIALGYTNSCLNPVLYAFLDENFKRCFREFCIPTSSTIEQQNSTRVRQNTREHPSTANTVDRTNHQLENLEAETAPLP
Chain of Mu-type opioid receptor (Rattus norvegicus) (P33535 whole entry): as above
Chain of Kappa-type opioid receptor (Homo sapiens) (P41145 whole entry): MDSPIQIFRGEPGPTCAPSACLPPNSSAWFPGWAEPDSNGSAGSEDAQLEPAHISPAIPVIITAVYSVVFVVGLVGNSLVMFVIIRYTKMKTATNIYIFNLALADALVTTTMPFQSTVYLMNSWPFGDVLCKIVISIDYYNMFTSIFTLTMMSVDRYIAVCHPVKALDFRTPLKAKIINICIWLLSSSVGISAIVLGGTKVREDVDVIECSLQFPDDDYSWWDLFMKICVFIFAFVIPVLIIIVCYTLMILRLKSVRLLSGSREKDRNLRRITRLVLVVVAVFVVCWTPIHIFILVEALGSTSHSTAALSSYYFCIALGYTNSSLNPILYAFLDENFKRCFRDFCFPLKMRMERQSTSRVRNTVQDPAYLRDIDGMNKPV
Chain of Sigma non-opioid intracellular receptor 1 (Q99720 whole entry): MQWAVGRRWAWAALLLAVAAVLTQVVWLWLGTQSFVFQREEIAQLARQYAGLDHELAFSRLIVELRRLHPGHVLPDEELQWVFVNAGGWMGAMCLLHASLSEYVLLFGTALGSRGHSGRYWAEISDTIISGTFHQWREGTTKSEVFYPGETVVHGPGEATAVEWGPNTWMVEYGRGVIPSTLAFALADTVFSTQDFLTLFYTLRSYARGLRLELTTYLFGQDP

Structure (SMILES)	Ratio [1]	Activity (Mus musculus [2])	Ratio [3]	Activity (Mus musculus [4])	Ratio (Cavia porcellus [5])	Ratio [6]	Ratio [7]	Ki (Mu-type opioid receptor)	Ratio (Cavia porcellus [8])	Ratio [9]	Activity (Mus musculus [10])	Ratio [11]	Ki (Glutamate NMDA receptor)	Activity (Mus musculus [12])	Ratio (Cercopithecidae)	Activity (Mus musculus [14])	Activity (Mus musculus [15])	further results
CCCCCCCN1CC[C@]2(C)c3cc(O)ccc3CC1[C@@H]2C	0.5	inactive	1.2	0.13	5.6	23	640	8.8 nM	115	9.6	1.7	28	5630 nM	2.4	3.1			
CCCCCCN1CC[C@]2(C)c3cc(O)ccc3CC1[C@@H]2C	2.2	inactive	1.1	0.13	8.5	53	712	4.7 nM	84	8.2	1.1	169	3350 nM	2.4	8.3			
CCCCCCCCCCN1CC[C@]2(C)c3cc(O)ccc3CC1[C@@H]2C	0.4	inactive	2.3		0.08	1	20	507 nM	263	0.8		9.1	10000 nM		2	inactive	inactive	Activity (Mus musculus [13]): inactive
CCCCCN1CC[C@]2(C)c3cc(O)ccc3CC1[C@@H]2C		inactive		0.2				16 nM			1.3		2470 nM	2.4				
CCN1CC[C@@]2(C)c3cc(O)ccc3CC1[C@H]2C		inactive		33.5				10000 nM					130 nM			inactive	inactive	
CCCCCCCCN1CC[C@]2(C)c3cc(O)ccc3CC1[C@@H]2C	0.1	inactive	1.3	0.5	1.2	29	266	30 nM	228	2.7	10.3	17	7970 nM	5.4	2			
C[C@@H]1C2Cc3ccc(O)cc3[C@]1(C)CCN2C			2.7		0.3		0.008	4970 nM	0.03				41 nM		0.3	inactive	inactive	Inhibition (Mus musculus [16]): 43%
CCCCCCCCCN1CC[C@]2(C)c3cc(O)ccc3CC1[C@H]2C		inactive	18		0.009		3	1380 nM	346				4150 nM		0.1	inactive	inactive	Activity (Mus musculus [13]): inactive
C[C@H]1C2Cc3ccc(O)cc3[C@@]1(C)CCN2		inactive						23 nM					197 nM					Inhibition (Mus musculus [17]): 66%; inhibition in vivo at 30 mg/kg (Mus musculus [18]): 38%; inhibition in vivo at 30 mg/kg (Mus musculus [19]): 13%
CCCN1CC[C@@]2(C)c3cc(O)ccc3CC1[C@H]2C			0.5		0.008		0.1	5220 nM	14.1				606 nM		0.2	inactive	inactive	Activity (Mus musculus [13]): inactive; inhibition in vivo at 30 mg/kg (Mus musculus [20]): 20%
CCCCCN1CC[C@@]2(C)c3cc(O)ccc3CC1[C@H]2C		inactive		1				1740 nM			20.4		1700 nM	38				
C=CCN1CCC2c3cc(O)ccc3CC1C2C (single isomer, unassigned; (-))																		Ki [21]: 4300 nM
C[C@H]1C2Cc3ccc(O)cc3[C@@]1(C)CCN2C	0.03	inactive	4	0.3	1640	222	108	11 nM	0.07	328	0.8	452	1190 nM	0.6	0.4			
CCCCCCCCCN1CC[C@]2(C)c3cc(O)ccc3CC1[C@@H]2C	0.7	inactive	3.9		0.2	3.2	41	151 nM	193	0.7		9.1	6170 nM		1.2	inactive	inactive	Activity (Mus musculus [13]): inactive
CCCCN1CC[C@@]2(C)c3cc(O)ccc3CC1[C@H]2C		inactive	0.6		0.002		0.3	2880 nM	149				893 nM		0.4	inactive	inactive	Inhibition (Mus musculus [17]): 43%
CCCCN1CC[C@]2(C)c3cc(O)ccc3CC1[C@@H]2C	1.5		1.4		8	160	47	13 nM	5.9	365		221	613 nM		0.3	inactive	inactive	Inhibition (Mus musculus [17]): 40%; Activity (Mus musculus [22]): 1.5
C=CCN1CC[C@]2(C)c3cc(O)ccc3CC1[C@@H]2C (single isomer, unassigned; (+))																		Ki [21]: 124 nM
CCCN1CC[C@]2(C)c3cc(O)ccc3CC1[C@@H]2C	2.3		1.3	22	97	226	35	7.6 nM	0.4	629		687	264 nM		0.2	inactive	inactive	Activity (Mus musculus [22]): 0.4
CCN1CC[C@]2(C)c3cc(O)ccc3CC1[C@@H]2C				1.4				32 nM					1870 nM			inactive		inhibition in vivo at 30 mg/kg (Mus musculus [18]): 25%; inhibition in vivo at 10 mg/kg (Mus musculus [23]): 25%; inhibition in vivo at 1 mg/kg (Mus musculus [24]): 13%; Activity (Mus musculus [22]): 3.7
CCCCCCCCN1CC[C@]2(C)c3cc(O)ccc3CC1[C@H]2C		inactive	14.2	7.8	0.005		1.5	522 nM	281				786 nM	11.1	0.3			inhibition in vivo at 30 mg/kg (Mus musculus [19]): 14%
CCCCCCCCCCN1CC[C@]2(C)c3cc(O)ccc3CC1[C@H]2C		inactive	3		0.02		0.9	4620 nM	61				4190 nM		0.2	inactive	inactive	Activity (Mus musculus [13]): inactive
CCCCCCN1CC[C@@]2(C)c3cc(O)ccc3CC1[C@H]2C		inactive	7.1	5.6	0.003		9.2	795 nM	3180		21.3		7300 nM		0.4		inactive	
CCCCCCCN1CC[C@]2(C)c3cc(O)ccc3CC1[C@H]2C		inactive	2.8	3.5	0.008		11	243 nM	1350		12.9		2570 nM	11.5	1.1			
